# Measurements taken from patent US12427103B2, “Cosmetic composition containing Hibiscus manihot l. extract and method for preparing the same” (ALL IN ON Co., Ltd, priority 2022, dated 2025).
# What was measured:
# RAW264.7 cells = test: Anti-inflammatory effect: nitric oxide (NO) formation inhibition, GRIESS method, LPS stimulus; assay type: cell-based, mouse; settings: RAW264.7, 10 ppm, LPS 1 μg, 24 hours
# Description: An anti-inflammatory effect was confirmed with respect to above Examples 1 to 4 and Comparative Examples 1 to 8.
# In order to confirm the anti-inflammatory effect and skin trouble alleviation effect of Examples 1 to 4 and Comparative Examples 1 to 8, an experiment on nitric oxide (NO) formation inhibitory power was performed with a GRIESS method using RAW264.7 cell lines (ATCC number: CRL-2278).
# Specifically, RAW264.7 cells, which are mouse macrophages, were subcultured several times and placed in a 24-well plate so that 3×10^5 cells were put into each well, and then incubated for 24 hours. Then, Examples 1 to 4 and Comparative Examples 1 to 8 were replaced with a diluted cell medium at a concentration of 10 ppm. At this time, L-NMMA (L-NG-Monomethylarginine), a NO-production inhibitor, was treated together as a positive control and incubated for 30 minutes, and then 1 μg of lipopolysaccharide (LPS) was treated as a stimulus and cultured for 24 hours. 100 μl of the supernatant was transferred to a 96-well plate and reacted at room temperature for 10 minutes with the addition of 100 μl of GRIESS solution, so as to measure the absorbance at 540 nm, thereby determining an NO inhibitory effect of the compound of Formula 1, and the results are shown in table 4 below.
# [1] = Antioxidant effect: free radical scavenging by DPPH method; assay type: biochemical; settings: 30 minutes, 517 nm, based on vitamin C 0.1% as 100%
# Description: An antioxidant effect experiment was performed to confirm an antioxidant effect of Examples 1 to 4 and Comparative Examples 1 to 8 through a free radical scavenging effect using a DPPH method according to a known method. 100 μl of Examples 1 to 4 and Comparative Examples 1 to 8 were dispensed into 96 microplates, and 10 μl of a 2,2-diphenyl-1-picrylhydrazyl (DPPH) solution dissolved in ethanol to reach 1 mM was added thereto. After a reaction in 30 minutes later at room temperature, absorbance was measured at 517 nm to measure a free radical scavenging activity. An experiment was performed with vitamin C at a concentration of 0.1% as a control group along with the compositions of Examples 1 to 4 and Comparative Examples 1 to 8. The results are shown in table 3 based on the free radical scavenging effect of vitamin C as 100%.
Structure (SMILES),NO production inhibition rate (%) (RAW264.7 cells),Free radical scavenging effect (%) [1]
"CNC(=N)NCCC[C@H](N)C(=O)O [L-NMMA, L-NG-Monomethylarginine]",39.14%,–
O=C1O[C@H]([C@@H](O)CO)C(O)=C1O [vitamin C],–,100%
